Tests used:
[1] = Plasma and brain exposure by LC/MS-MS after single IM or IV dose; conditions: 30% CAPTISOL, SD rats
Protocol: FIG. 4A depicts the plasma exposure profiles of allopregnanolone measured by LC/MS-MS after single intramuscular (10 mg/kg) or intravenous (5 mg/kg) allopregnanolone dose in 30% CAPTISOL® in SD rats. FIG. 4B depicts the brain exposure profiles of allopregnanolone measured by LC/MS-MS after single intramuscular (10 mg/kg) or intravenous (5 mg/kg) allopregnanolone dose in 30% CAPTISOL® in SD rats.
The plasma and brain exposure profiles of Allopregnanolone were measured by LC/MS-MS after single intramuscular (IM) (10 mg/kg) or intravenous (IV) (5 mg/kg) dose in 30% CAPTISOL® in SD rats. […] N=2/time point. Error bars, SEM (FIGS. 4A and 4B).

[2] = tested on: PTZ-treated C57BL6/J mice; test: PTZ (pentylenetetrazol) seizure model, prevention of status epilepticus; format: in vivo; conditions: 3, 10, 30 mg/kg IP in 15% β-Cyclodextrin; PTZ 85 mg/kg IP; relative to vehicle-treated control
Protocol: FIG. 2A is a graph depicting the seizure rank in PZT treated C57BL6/J mice intraperitoneally administered 3, 10, 30 mg/kg allopregnanolone in 15% β-Cyclodextrin. FIG. 2B is graph depicting the latency to death period in PZT treated C57BL65 mice intraperitoneally administered 3, 10, 30 mg/kg allopregnanolone in 15% β-Cyclodextrin.
(§1) Plasma levels of three animals in each Allopregnanolone treatment group were collected randomly at completion of study and analyzed by LC-MS/MS. Bioanalytical measures are indicated in ng/mL (FIG. 2A). Data are presented as mean+/−SEM. *P<0.05 indicate a statistically significant difference relative to vehicle control by Fisher's PLSD. Valproate 400 mg/kg was used as a positive control in the study.

[3] = tested on: Fmr1 KO mice; test: Audiogenic seizure (AGS) status epilepticus rescue in Fmr1 knockout mice; format: in vivo; conditions: 3, 10, 30 mg/kg IP in 30% b-Cyclodextrin; relative to vehicle treated control
Protocol: FIG. 1A is a bar graph depicting the percent seizure in fmr1 KO mice intraperitoneally administered 3, 10, 30 mg/kg allopregnanolone in 30% β-Cyclodextrin. FIG. 1B is a bar graph depicting the percent survival in fmr1 KO mice intraperitoneally administered 3, 10, 30 mg/kg allopregnanolone in 30% β-Cyclodextrin.
as §1, with “six” for “three”, “1A).” for “2A).”, “MPEP 30” for “Valproate 400”

[4] = tested on: penetrating ballistic brain injury rodent model; test: Penetrating ballistic brain injury rodent model of traumatic brain injury; format: in vivo; conditions: in 6% CAPTISOL; low (2.5 then 1.25 mg/kg/hr) and high (5.0 then 2.50 mg/kg/hr) dose groups, 5 day infusion
Description: FIG. 5A depicts the latency to fall period (seconds) in a penetrating ballistic brain injury rodent model of traumatic brain injury in both the low and high dose groups progesterone in 6% CAPTISOL®. FIG. 5B depicts the mean motor score in a penetrating ballistic brain injury rodent model of traumatic brain injury in both the low and high dose groups progesterone in 6% CAPTISOL®.
Progesterone in 6% CAPTISOL® rescued motor impairment in a penetrating ballistic brain injury rodent model of traumatic brain injury in both the low and high dose groups (FIG. 5A and FIG. 5B). Progesterone was administered via a bolus loading dose followed by a 5 day continuous infusion where progesterone was tapered over the last 24 hours every 8 hrs by 25%. The low dose group received 2.5 mg/kg/hr for a 1 hr bolus infusion followed by a maintenance dose of 1.25 mg/kg/hr over 5 days with the last 24 hours being a taper. The high dose group received 5.0 mg/kg/hr for a 1 hr bolus infusion followed by a maintenance dose of 2.50 mg/kg/hr over 5 days with the last 24 hours being a taper.

Structure (SMILES) | exposure in plasma, IM (10 mg/kg) relative to IV (5 mg/kg) dose ([1]; 0.5-2 hr) | exposure in brain, IM (10 mg/kg) relative to IV (5 mg/kg) dose ([1]; 1 hr) | Latency to Death [2] | Seizure rank [2] | Percent Seizure [3] | Percent Survival [3] | motor impairment (latency to fall, mean motor score) [4]
CC(=O)[C@H]1CC[C@H]2[C@@H]3CC[C@H]4C[C@H](O)CC[C@]4(C)[C@H]3CC[C@]12C [Allopregnanolone, 3 alpha-hydroxy-5 alpha-pregnan-20-one] | 671-916% | 506% | increase | significant decrease | significant decrease | increase | –
CC(=O)[C@H]1CC[C@H]2[C@@H]3CCC4=CC(=O)CC[C@]4(C)[C@H]3CC[C@]12C [Progesterone, pregn-4-ene-3,20-dione] | – | – | – | – | – | – | rescued
